Holding throughout (format): in vivo
The subject of assay [1] is Lycopersicum esculentum. As to the kind of experiment: Change of sugar content over time after one application of GSH or GSSG (Example 6). The settings on record: 50 mL of 0.5 mM once at root 90 days after sowing; fruit harvested day 0 to day 4.
Description: In the present example, a sugar content of a plant was determined after a substance for regulating an oxidation-reduction state of a cell was applied to the plant. The substance for regulating an oxidation-reduction state of a cell was GSH or GSSG. As in the case of Example 1, Lycopersicum esculentum was used as the plant. Specifically, the following operations were carried out.
Ninety days after sowing of Lycopersicum esculentum seeds, Lycopersicum esculentum plants were subjected to a GSH or GSSG treatment. The Lycopersicum esculentum plants were cultivated by the same method as in Example 1 except for the GSH or GSSG treatment. The GSH or GSSG treatment was such that 50 mL of 0.5 mM GSSH or 0.5 mM GSH (adjusted with 0.1N NaOH to be at pH 7) was applied once at a root per plant. Then, fruit of the plants was harvested every day from the 0th day until the 4th day after application of GSH or GSSG, and subjected to sugar content determination. […] FIG. 3 is a graph showing a determination result of relation between sugar content and the number of days from an application day of GSH or GSSG. In FIG. 3, the vertical scale indicates sugar content (Brix, unit: %) and the horizontal scale indicates days from the application day. In FIG. 3, lines labeled with circles, triangles, and squares show results of the plants applied with GSH, GSSG, and no GSH and no GSSG, respectively. […]
Assay [2] deals with Lycopersicum esculentum. As to the kind of experiment: Cultivation of Lycopersicum esculentum with GSSG or GSH, sensory tests of fruit (Example 1). The settings on record: 50 mL of 0.5 mM at root twice a week, 60 days. The text has this:
In the present example, Lycopersicum esculentum was cultivated with use of GSSG or GSH. Details of cultivation are described below.
First, Lycopersicum esculentum seedlings (TAKII & CO. Ltd., product name: Osama tomato reika) were transplanted into a hydroponic culture pot ( 1/2000 a). In the hidroponic culture pot, 6 L of vermiculite (ASAHI INDUSTRIES Co., LTD.), 3 L of KUREHA horticultural soil (KUREHA CORPORATION), and 3 L of vermiculite were layered as a lower, middle, and upper layers, respectively.
During the cultivation of Lycopersicum esculentum, 50 mL of 0.5 mM GSSG or 0.5 mM GSH (adjusted with 0.1N NaOH to be at pH 7) was applied twice a week at a root per plant. The Lycopersicum esculentum plants were grown for 60 days without being subjected to bud removal. Last 10 days was used as a harvest period for harvesting fruit of the plants. For comparison, a Lycopersicum esculentum plant was grown under the same condition, except that GSSG and GSH were not applied. To the plants of any condition, 3 g of Kumiai phosphorate ammonium nitrate potassium S-604 (Chisso Asahi Fertilizer Co., Ltd.) was applied as an additional fertilizer once in 2 weeks.
Next, the fruit harvested was subjected to sensory tests of sugar content and the like. As a result, it was determined that fruit of the plant applied with GSSG increased in sugar content compared to that of the plant not applied with GSSG or GSH. Further, it was determined that the plant applied with GSSG increased in number of fruit. It was determined that fruit of the plant applied with GSH increased in sugar content and acidity.

Assay [3] relates to Zea mays L. var. saccharata Sturt. The assay can be described thus: Cultivation of Zea mays L. var. saccharata Sturt with GSSG leaf spray, sensory test (Example 11). The text has this: In the present example, Zea mays L. var. saccharata Sturt was cultivated. First, a Zea mays L. var. saccharata Sturt seed (TAKII & CO. Ltd., product number: Canberra 86) was sown in vermiculite (ASAHI INDUSTRIES Co., LTD.). Two weeks after sowing, a Zea mays L. var. saccharata Sturt plant was transplanted to a hydroponic culture pot described in Example 1. To the plant, 3 g of Kumiai phosphorate ammonium nitrate potassium S-604 (Chisso Asahi Fertilizer Co., Ltd.) was applied as an additional fertilizer 4 weeks and 6 weeks after the sowing.
In the 5th, 6th, 7th, and 8th week after the sowing, 0.5 mM GSSG (dissolved in 0.1% Tween80 serving as a spreading agent) was sprayed onto a leaf surface. For comparison, a Zea mays L. var. saccharata Sturt plant was cultivated by the same method as in the present example, except that Tween80, but not GSSG, was applied, and fruit thereof was harvested.
Fruit was harvested 86 days after the sowing and subjected to a sensory test of sugar content. As a result, it was determined that fruit of the plant applied with GSSG increased in sugar content compared to that of the plant applied with no GSSG. Further, the fruit obtained was subjected to sugar content determination using “Pocket” Refractometer APAL-1 (ATAGO CO., LTD.). For comparison, the fruit of the plant applied with no GSSG was also subjected to the sugar content determination. […] In FIG. 8, the vertical scale indicates sugar content (Brix, unit: %).
It was also determined that the plant applied with GSSG increased in size and number of fruit. Further, it was determined that the fruit of the plant applied with GSSG was already able to be harvested 70 days after the sowing.

For assay [4] the test system is unchanged. As to the kind of experiment: Cultivation of Zea mays L. var. saccharata Sturt with GSSG, sensory test (Example 3). The settings on record: 50 mL of 0.2 mM, 4 times at root and 4 times sprayed to leaves. The text has this: In the present example, Zea mays L. var. saccharata Sturt was cultivated. First, a Zea mays L. var. saccharata Sturt seed (TAKII & CO. Ltd., product number: Canberra 90) was sown in vermiculite (ASAHI INDUSTRIES Co., LTD.). Two weeks after sowing, a Zea mays L. var. saccharata Sturt plant was transplanted to a hydroponic culture pot described in Example 1. To the plant, 3 g of Kumiai phosphorate ammonium nitrate potassium S-604 (Chisso Asahi Fertilizer Co., Ltd.) was applied as an additional fertilizer 4 weeks and 6 weeks after the sowing.
Within 2 weeks from the 5th week after the sowing, 50 mL of 0.2 mM GSSG was applied 4 times at a root of the plant. Within 2 weeks from the 7th week after the sowing, 50 mL of 0.2 mM GSSG was sprayed 4 times to leaves of the plant. For comparison, a Zea mays L. var. saccharata Sturt plant was cultivated by the same method as in the present example, except that GSSG was not applied, and fruit thereof was harvested.
Fruit was harvested 90 days after the sowing and subjected to a sensory test of sugar content. As a result, it was determined that fruit of the plant applied with GSSG increased in sugar content compared to that of the plant applied with no GSSG. Further, it was determined that the plant applied with GSSG increased in size and number of fruit.

The test system of the next assay is Fragaria ananassa. As to the kind of experiment: Cultivation of Fragaria ananassa with GSSG or GSH, sensory tests of fruit (Example 10). Particulars: 63 days. On the procedure: In the present example, Fragaria ananassa was cultivated with use of GSSG or GSH. Details of cultivation are described below.
First, Fragaria ananassa seedlings were transplanted to a planter. In the planter, 6 L of vermiculite (ASAHI INDUSTRIES Co., LTD.), 3 L of KUREHA horticultural soil (KUREHA CORPORATION), and 3 L of vermiculite were layered as a lower, middle, and upper layers, respectively.
During cultivation of Fragaria ananassa plants, 50 mL of 0.2 mM or 0.5 mM GSSG or 50 mL of 0.4 mM or 0.5 mM GSH (adjusted with 0.1N NaOH to be at pH7) was applied once a week at a root per plant. The plants were grown for 63 days without being subjected to bud removal. For comparison, a Fragaria ananassa plant was grown under the same condition, except that GSSG and GSH were not applied. To the plants of any condition, 3 g of Kumiai phosphorate ammonium nitrate potassium S-604 (Chisso Asahi Fertilizer Co., Ltd.) was applied as an additional fertilizer once in 2 weeks.
Next, the fruit harvested was subjected to sensory tests of sugar content and the like. As a result, it was determined that fruit of the plant applied with GSSG increased in sugar content and decreased in acidity compared to that of the plant not applied with GSSG or GSH. Further, it was determined that the plant applied with GSSG increased in number of fruit. It was also determined that fruit of the plant applied with GSH increased in sugar content and acidity.

The mark [5] stands for this setting: 0.5 mM in 0.1% Tween80 sprayed onto leaf surface in weeks 5-8.

Turning to oxidized glutathione [GSSG], the “sugar content of fruit (Brix) after application” value with Lycopersicum esculentum [1] is “rapidly improve”. Moreover, the number of fruit entry (with Lycopersicum esculentum [2]; in assay [3] (setting [5]); in assay [4]; in the assay on Fragaria ananassa (50 mL of 0.2 or 0.5 mM GSSG once a week at root)) was “increased” throughout. Moreover, the “sugar content of fruit (sensory test)” value in the assay with Lycopersicum esculentum [2] (compared to plant not applied with GSSG or GSH) is recorded as “increased”; in assay [3] (0.5 mM in 0.1% Tween80 sprayed onto leaf surface in weeks 5-8 after sowing, harvest 86 days, vs Tween80 only), “increased”; in assay [4] (harvest 90 days after sowing, vs no GSSG), “increased”; in the assay on Fragaria ananassa (50 mL of 0.2 or 0.5 mM GSSG, or 0.4 or 0.5 mM GSH, once a week at root, vs plant not applied) it was “increased”. In addition, the size of fruit result in assay [3] (setting [5]) and in assay [4] was “increased” throughout. The “time at which fruit was already able to be harvested” value in assay [3] (setting [5]) worked out at 70 days after the sowing. Further, in the assay on Fragaria ananassa (50 mL of 0.2 or 0.5 mM GSSG, or 0.4 or 0.5 mM GSH, once a week at root), the “acidity of fruit (sensory test)” value was “decreased”.

Values taken from patent US8524978B2, “Composition for production of plant body having improved sugar content, and use thereof” (Japan Science and Technology Agency, priority 2007, dated 2013).
